The text below walks through data of patent publication US9604944B2, “Arylpiperazine derivatives and methods of utilizing same” (REVIVA PHARMACEUTICALS, INC., priority 2009, dated 2017).

Assay [1] deals with serotonin 5-HT1A receptor (human recombinant expressed in HEK-293 cells) (Homo sapiens (Human), UniProt P08908). Kind of assay: Serotonin, 5HT1A (human recombinant) binding assay. The settings on record: radioligand [3H]-8-OH-DPAT; human recombinant in HEK-293 cells. The method, then: Serotonin, 5HT1A (human recombinant) binding assay
Materials and Methods: • Receptor Source: Human recombinant expressed in HEK-293 cells • Radioligand: [^3H]-8-OH-DPAT (221 Ci/mmol) • Control Compound: 8-OH-DPAT • Incubation Conditions: The reactions were carried out in 50 mM TRIS-HCl (pH 7.4) containing 10 mM MgSO4, 0.5 mM EDTA and 0.1% Ascorbic acid at room temperature for 1 hour. The reaction was terminated by rapid vacuum filtration onto glass fiber filters. Radioactivity trapped onto the filters was determined and compared to control values in order to ascertain any interactions of test compounds with the cloned serotonin—5HT1A binding site (Literature Reference: Hoyer, D. et al. Eur. Journal Pharmacol. 1985, 118, 13-23; Schoeffter, P. and Hoyer, D. Naunyn-Schmiedeberg's Arch. Pharmac. 1989, 340, 135-138)
(§1) The radioligand binding assays for dopamine-D2S, serotonin-5HT1A and serotonin-5HT2A were carried out at six different concentrations and the test concentrations were 0.5 nM, 1 nM, 10 nm, 100 nM, 300 nM and 1000 nM.

The target of assay [2] is serotonin 5-HT2A receptor (Human Cortex) (Homo sapiens (Human), UniProt P28223). As to the kind of experiment: Serotonin, 5HT2A (human) binding assay. To be noted: radioligand [3H]-Ketanserin. As for the experimental part:
Serotonin, 5HT2A (human) binding assay
Materials and Methods: • Receptor Source: Human Cortex • Radioligand: [^3H]-Ketanserin (60-90 Ci/mmol) • Control Compound: Ketanserin • Incubation Conditions: The reactions were carried out in 50 mM TRIS-HCl (pH 7.6) at room temperature for 90 minutes. The reaction was terminated by rapid vacuum filtration onto glass fiber filters. Radioactivity trapped onto the filters was determined and compared to control values in order to ascertain any interactions of test compounds with the serotonin-5HT2A binding site (Literature Reference: Leysen, J. E. et al. Mol. Pharmacol. 1982, 21, 301-314; Martin, G. R. and Humphrey, P. P. A. Neuropharmacol. 1994, 33(3/4), 261-273.)
as §1

The target in assay [3] is dopamine D2S receptor (human recombinant expressed in CHO cells) (Homo sapiens (Human), UniProt P14416). Kind of assay: Dopamine, D2S (human recombinant) binding assay. The settings on record: radioligand [3H]Spiperone. The method, then:
Dopamine, D2S (human recombinant) binding assay
Materials and Methods: • Receptor Source: Human recombinant expressed in CHO cells • Radioligand: [^3H]Spiperone (20-60 Ci/mmol) • Control Compound: Haloperidol • Incubation Conditions: The reactions were carried out in 50 mM TRIS-HCl (pH 7.4) containing 120 mM NaCl, 5 mM KCl, 5 mM MgCl2, 1 mM EDTA for 60 minutes at 25 C. The reaction was terminated by rapid vacuum filtration onto glass fiber filters. Radioactivity trapped onto the filters was determined and compared to control values in order to ascertain any interactions of test compounds with the cloned dopamine—D2 short binding site (Literature Reference: Jarvis, K. R. et al. Journal of Receptor Research 1993, 13(1-4), 573-590; Gundlach, A. L. et al. Life Sciences 1984, 35, 1981-1988.)
as §1

Structures can show the parent of a compound that is named as a salt.

serotonin 5-HT1A receptor (human recombinant expressed in HEK-293 cells), sequence (P08908 whole entry): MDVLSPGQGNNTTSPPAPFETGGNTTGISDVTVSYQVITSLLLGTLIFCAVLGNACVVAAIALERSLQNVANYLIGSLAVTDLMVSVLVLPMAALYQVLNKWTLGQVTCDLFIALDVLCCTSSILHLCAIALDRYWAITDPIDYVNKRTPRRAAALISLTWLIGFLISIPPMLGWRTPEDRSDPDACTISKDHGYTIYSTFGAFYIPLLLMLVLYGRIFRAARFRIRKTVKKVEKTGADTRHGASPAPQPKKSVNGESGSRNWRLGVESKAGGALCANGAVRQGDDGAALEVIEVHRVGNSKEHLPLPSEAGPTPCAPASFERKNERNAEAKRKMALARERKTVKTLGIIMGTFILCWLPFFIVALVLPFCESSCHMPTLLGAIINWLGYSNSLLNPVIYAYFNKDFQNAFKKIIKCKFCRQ
serotonin 5-HT2A receptor (Human Cortex), sequence (P28223 whole entry): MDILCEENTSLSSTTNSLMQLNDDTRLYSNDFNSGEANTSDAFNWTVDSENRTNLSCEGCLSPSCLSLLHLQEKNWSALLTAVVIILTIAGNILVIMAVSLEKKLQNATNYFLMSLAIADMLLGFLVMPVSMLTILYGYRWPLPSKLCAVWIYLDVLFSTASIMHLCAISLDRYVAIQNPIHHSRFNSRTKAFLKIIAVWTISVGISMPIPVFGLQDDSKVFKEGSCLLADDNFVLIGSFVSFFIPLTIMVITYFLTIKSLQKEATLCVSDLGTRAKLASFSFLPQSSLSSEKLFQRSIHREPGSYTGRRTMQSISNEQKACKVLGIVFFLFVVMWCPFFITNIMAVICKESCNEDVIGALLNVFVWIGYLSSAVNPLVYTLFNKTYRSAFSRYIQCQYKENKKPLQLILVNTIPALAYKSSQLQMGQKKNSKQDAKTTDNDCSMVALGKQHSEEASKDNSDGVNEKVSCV
dopamine D2S receptor (human recombinant expressed in CHO cells), sequence (P14416 other isoform, or with tags, fused parts or gaps): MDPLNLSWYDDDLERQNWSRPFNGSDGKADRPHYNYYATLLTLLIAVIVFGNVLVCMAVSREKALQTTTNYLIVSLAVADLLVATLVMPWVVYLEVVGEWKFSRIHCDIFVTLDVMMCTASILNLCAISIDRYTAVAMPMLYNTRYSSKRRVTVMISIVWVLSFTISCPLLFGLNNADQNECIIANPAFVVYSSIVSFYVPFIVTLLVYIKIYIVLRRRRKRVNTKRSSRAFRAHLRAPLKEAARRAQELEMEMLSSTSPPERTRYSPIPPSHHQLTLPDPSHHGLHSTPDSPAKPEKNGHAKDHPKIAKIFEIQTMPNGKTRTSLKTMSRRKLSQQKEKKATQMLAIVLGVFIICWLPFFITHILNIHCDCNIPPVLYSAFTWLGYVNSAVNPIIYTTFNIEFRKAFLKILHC

For `COc1ccccc1N1CCN(CCCCOc2ccc3c(c2)NC(=O)CO3)CC1` [Compound 15a, 6-(4-(4-(2-Methoxyphenyl)piperazin-1-yl)butoxy)-2H-benzo[b][1,4]oxazin-3(4H)-one hydrochloride], the concentration for half-maximal inhibition (IC50) came out at 0.97 nM in assay [1], 262 nM in assay [2] and 0.98 nM in assay [3]. For the same molecule, the Ki in assay [1] worked out at 0.65 nM; in assay [2], 118 nM; in assay [3], 0.3 nM.

In the case of `O=C1COc2ccc(OCCCCN3CCN(c4cccc(Cl)c4Cl)CC3)cc2N1` [Compound 15b, 6-(4-(4-(2,3-Dichlorophenyl)piperazin-1-yl)butoxy)-2H-benzo[b][1,4]oxazin-3(4H)-one hydrochloride], the values for the IC50 in assay [1] and in assay [2] were 2.25 nM and 130 nM, respectively. For the same molecule, the Ki turned out to be 1.5 nM in assay [1] and 58.5 nM in assay [2].

The IC50 is the concentration needed to halve the response being measured. As a reminder, the Ki is the dissociation constant of the complex between target and ligand, obtained from inhibition or displacement.
